Measurements published in patent US11420958B2, “Aryl and heteroaryl substituted indole compounds” (BRISTOL-MYERS SQUIBB COMPANY, priority 2017, dated 2022).

What was measured:
Assay type in all cases: cell-based
[1] = target: human TLR7 (Homo sapiens (Human), UniProt Q9NYK1); assay: TLR7 inhibition reporter assay (HEK-Blue, SEAP); conditions: HEK-Blue cells overexpressing human TLR7, gardiquimod 7.5 μM stimulation
How it was run: (§1)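 SEAP read-out via detection medium after 22 h at 37 °C, 5% CO2; percent inhibition relative to agonist-plus-DMSO and known-inhibitor wells. Agonists: TLR7 gardiquimod 7.5 μM, TLR8 R848 15.9 μM, TLR9 ODN2006 5 nM (final). Compound range 0.05 nM–50 μM, 30 min pre-treatment.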

[2] = target: human TLR8 (Homo sapiens (Human), UniProt Q9NR97); assay: TLR8 inhibition reporter assay (HEK-Blue, SEAP); conditions: HEK-Blue cells overexpressing human TLR8, R848 15.9 μM stimulation
How it was run: as §1

[3] = target: human TLR9 (Homo sapiens (Human), UniProt Q9NR96); assay: TLR9 inhibition reporter assay (HEK-Blue, SEAP); conditions: HEK-Blue cells overexpressing human TLR9, ODN2006 5 nM stimulation
How it was run: as §1

human TLR7, sequence (Q9NYK1 27-1049): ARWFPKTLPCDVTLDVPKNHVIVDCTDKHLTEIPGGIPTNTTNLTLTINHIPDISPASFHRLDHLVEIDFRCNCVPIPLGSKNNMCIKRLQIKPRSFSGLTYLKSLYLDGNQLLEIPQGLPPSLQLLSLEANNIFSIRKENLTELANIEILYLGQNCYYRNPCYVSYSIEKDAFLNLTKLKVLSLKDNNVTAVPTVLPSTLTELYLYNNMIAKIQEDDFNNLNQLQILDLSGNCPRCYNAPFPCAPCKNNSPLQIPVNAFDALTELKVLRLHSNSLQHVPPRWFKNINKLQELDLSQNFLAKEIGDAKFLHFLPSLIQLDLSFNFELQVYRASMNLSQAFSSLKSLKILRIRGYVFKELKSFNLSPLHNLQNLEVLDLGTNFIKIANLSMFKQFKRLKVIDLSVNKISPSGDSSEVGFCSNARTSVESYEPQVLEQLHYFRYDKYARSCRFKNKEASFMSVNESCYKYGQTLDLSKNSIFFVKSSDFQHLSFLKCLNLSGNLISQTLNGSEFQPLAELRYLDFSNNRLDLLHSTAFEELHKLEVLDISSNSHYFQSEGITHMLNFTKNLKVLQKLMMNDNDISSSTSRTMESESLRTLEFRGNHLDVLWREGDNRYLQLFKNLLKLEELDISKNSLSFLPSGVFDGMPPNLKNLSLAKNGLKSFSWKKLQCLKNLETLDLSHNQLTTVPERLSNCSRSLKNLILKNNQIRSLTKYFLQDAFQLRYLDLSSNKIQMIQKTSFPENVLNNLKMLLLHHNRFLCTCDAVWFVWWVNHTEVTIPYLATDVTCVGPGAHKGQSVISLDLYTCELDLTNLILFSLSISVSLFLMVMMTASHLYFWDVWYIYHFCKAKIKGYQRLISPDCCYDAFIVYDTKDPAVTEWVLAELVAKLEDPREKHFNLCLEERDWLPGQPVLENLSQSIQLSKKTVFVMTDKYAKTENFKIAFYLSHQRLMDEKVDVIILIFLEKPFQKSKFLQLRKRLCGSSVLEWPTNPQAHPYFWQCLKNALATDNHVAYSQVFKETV
human TLR9, sequence (Q9NR96 26-1032): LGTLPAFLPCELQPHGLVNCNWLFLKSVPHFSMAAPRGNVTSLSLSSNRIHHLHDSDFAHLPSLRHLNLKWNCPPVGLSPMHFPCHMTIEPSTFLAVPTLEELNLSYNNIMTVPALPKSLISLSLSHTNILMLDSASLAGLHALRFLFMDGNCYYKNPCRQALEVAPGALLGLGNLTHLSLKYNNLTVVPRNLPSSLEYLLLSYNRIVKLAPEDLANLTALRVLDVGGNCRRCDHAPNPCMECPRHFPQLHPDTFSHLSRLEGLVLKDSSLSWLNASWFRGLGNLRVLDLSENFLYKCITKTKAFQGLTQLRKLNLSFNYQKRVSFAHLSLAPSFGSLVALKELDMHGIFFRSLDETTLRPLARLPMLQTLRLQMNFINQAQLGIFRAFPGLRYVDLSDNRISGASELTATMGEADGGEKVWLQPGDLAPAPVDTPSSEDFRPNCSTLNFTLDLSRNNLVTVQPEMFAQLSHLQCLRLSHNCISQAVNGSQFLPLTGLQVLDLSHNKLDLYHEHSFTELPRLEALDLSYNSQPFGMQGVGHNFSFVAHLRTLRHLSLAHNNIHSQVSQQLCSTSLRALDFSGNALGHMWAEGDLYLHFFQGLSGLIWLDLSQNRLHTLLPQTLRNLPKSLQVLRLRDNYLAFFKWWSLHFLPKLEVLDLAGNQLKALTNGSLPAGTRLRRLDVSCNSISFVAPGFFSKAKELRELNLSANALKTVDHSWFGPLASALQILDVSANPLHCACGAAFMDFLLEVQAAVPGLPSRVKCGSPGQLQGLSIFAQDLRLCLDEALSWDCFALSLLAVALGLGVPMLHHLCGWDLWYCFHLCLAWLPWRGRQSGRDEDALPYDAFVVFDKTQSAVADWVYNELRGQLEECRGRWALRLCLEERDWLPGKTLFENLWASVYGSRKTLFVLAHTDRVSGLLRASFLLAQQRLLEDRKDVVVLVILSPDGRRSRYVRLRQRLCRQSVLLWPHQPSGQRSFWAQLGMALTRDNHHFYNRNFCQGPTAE
human TLR8, sequence (Q9NR97 27-1041): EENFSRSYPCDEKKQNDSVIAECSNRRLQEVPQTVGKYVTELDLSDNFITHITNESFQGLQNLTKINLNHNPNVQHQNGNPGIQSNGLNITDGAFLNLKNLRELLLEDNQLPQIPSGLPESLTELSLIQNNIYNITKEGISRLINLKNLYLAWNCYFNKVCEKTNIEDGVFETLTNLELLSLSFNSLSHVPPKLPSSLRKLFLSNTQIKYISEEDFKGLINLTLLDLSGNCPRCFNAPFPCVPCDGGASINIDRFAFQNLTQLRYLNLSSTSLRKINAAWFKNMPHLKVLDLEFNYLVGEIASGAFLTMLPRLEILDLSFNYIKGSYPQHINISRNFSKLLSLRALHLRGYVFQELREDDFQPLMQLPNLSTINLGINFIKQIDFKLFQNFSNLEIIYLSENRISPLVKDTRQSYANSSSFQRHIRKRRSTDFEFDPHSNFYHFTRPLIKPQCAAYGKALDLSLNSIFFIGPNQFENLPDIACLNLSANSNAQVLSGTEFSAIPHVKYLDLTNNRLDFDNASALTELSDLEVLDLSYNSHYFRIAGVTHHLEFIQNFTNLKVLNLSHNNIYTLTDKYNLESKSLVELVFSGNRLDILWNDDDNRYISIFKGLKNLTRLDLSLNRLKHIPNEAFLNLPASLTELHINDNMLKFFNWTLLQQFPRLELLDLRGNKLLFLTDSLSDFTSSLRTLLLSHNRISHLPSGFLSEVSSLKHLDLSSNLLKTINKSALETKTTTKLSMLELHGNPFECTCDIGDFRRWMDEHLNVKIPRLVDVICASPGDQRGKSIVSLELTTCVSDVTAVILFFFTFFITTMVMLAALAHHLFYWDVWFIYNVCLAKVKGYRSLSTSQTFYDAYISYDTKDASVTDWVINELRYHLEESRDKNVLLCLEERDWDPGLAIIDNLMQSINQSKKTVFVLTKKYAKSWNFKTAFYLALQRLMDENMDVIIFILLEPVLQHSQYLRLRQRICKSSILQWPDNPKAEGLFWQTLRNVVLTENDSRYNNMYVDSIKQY

SMILES	IC50 [1] [µM]	IC50 [2] [µM]	IC50 [3] [µM]
COc1ccc(-c2[nH]c3ccc(-c4nnc(C5CCNC5)o4)cc3c2C(C)C)cc1OC (stereo not drawn) [Example 48, 2-(2-(3,4-dimethoxyphenyl)-3-isopropyl-1H-indol-5-yl)-5-(pyrrolidin-3-yl)-1,3,4-oxadiazole]	0.034	0.011	2.33
CN[C@@H](C)c1nnc(-c2ccc3[nH]c(-c4ccc(OC)c(OC)c4)c(C(C)C)c3c2)o1 [Example 49, (S)-1-(5-(2-(3,4-dimethoxyphenyl)-3-isopropyl-1H-indol-5-yl)-1,3,4-oxadiazol-2-yl)-N-methylethan-1-amine]	0.169	0.011	11.5
COc1ccc(-c2[nH]c3ccc(-c4nnc(C[C@@H]5CCCCN5)o4)cc3c2C(C)C)cc1OC [Example 50, (S)-2-(2-(3,4-dimethoxyphenyl)-3-isopropyl-1H-indol-5-yl)-5-(piperidin-2-ylmethyl)-1,3,4-oxadiazole]	0.044	0.0059	1.08
COc1ccc(-c2[nH]c3ccc(-c4nnc(C[C@@H]5CCCN5)o4)cc3c2C(C)C)cc1OC [Example 51, (S)-2-(2-(3,4-dimethoxyphenyl)-3-isopropyl-1H-indol-5-yl)-5-(pyrrolidin-2-ylmethyl)-1,3,4-oxadiazole]	0.06	0.0077	1.07
COc1ccc(-c2[nH]c3ccc(-c4nnc([C@H]5CCCNC5)o4)cc3c2C(C)C)cc1OC [Example 52, (S)-2-(2-(3,4-dimethoxyphenyl)-3-isopropyl-1H-indol-5-yl)-5-(piperidin-3-yl)-1,3,4-oxadiazole]	0.026	0.006	0.77
COc1ccc(-c2[nH]c3ccc(-c4nnc(C5CNC5)o4)cc3c2C(C)C)cc1OC [Example 53, 2-(azetidin-3-yl)-5-(2-(3,4-dimethoxyphenyl)-3-isopropyl-1H-indol-5-yl)-1,3,4-oxadiazole]	0.381	0.078	3.01
COc1ccc(-c2[nH]c3ccc(-c4nnc(C[C@H]5CCCCN5)o4)cc3c2C(C)C)cc1OC [Example 54, (R)-2-(2-(3,4-dimethoxyphenyl)-3-isopropyl-1H-indol-5-yl)-5-(piperidin-2-ylmethyl)-1,3,4-oxadiazole]	0.075	0.0039	0.706
COc1ccc(-c2[nH]c3ccc(-c4nnc([C@@H]5CCCNC5)o4)cc3c2C(C)C)cc1OC [Example 55, (R)-2-(2-(3,4-dimethoxyphenyl)-3-isopropyl-1H-indol-5-yl)-5-(piperidin-3-yl)-1,3,4-oxadiazole]	0.032	0.0082	1.26
COc1ccc(-c2[nH]c3ccc(-c4nnc([C@@H]5CCCNC5)o4)cc3c2CC(F)(F)F)cc1OC [Example 56, (R)-2-(2-(3,4-dimethoxyphenyl)-3-(2,2,2-trifluoroethyl)-1H-indol-5-yl)-5-(piperidin-3-yl)-1,3,4-oxadiazole]	0.047	0.025	1.27
Cc1cc(-c2[nH]c3ccc(-c4nnc(C(=O)NC5CCN(C(C)C)CC5)o4)cc3c2C(C)C)ccn1 [Example 58, 5-(3-isopropyl-2-(2-methylpyridin-4-yl)-1H-indol-5-yl)-N-(1-isopropylpiperidin-4-yl)-1,3,4-oxadiazole-2-carboxamide]	0.05	0.0038	0.303
COc1ccc(-c2[nH]c3ccc(-c4nnc(C(=O)NC5CCN(C(C)C)CC5)o4)cc3c2C(C)C)cc1OC [Example 59, 5-(2-(3,4-dimethoxyphenyl)-3-isopropyl-1H-indol-5-yl)-N-(1-isopropylpiperidin-4-yl)-1,3,4-oxadiazole-2-carboxamide]	0.055	0.0062	0.936
Cc1cc(-c2[nH]c3ccc(-c4nnc(C(=O)N5CC6CNCC6C5)o4)cc3c2C(C)C)ccn1 (stereo not drawn) [Example 60, (hexahydropyrrolo[3,4-c]pyrrol-2(1H)-yl)(5-(3-isopropyl-2-(2-methylpyridin-4-yl)-1H-indol-5-yl)-1,3,4-oxadiazol-2-yl)methanone]	0.194	0.006	0.283
COc1ccc(-c2[nH]c3ccc(-c4nnc(C(=O)N5CC6CNCC6C5)o4)cc3c2C(C)C)cc1OC (stereo not drawn) [Example 61, (5-(2-(3,4-dimethoxyphenyl)-3-isopropyl-1H-indol-5-yl)-1,3,4-oxadiazol-2-yl)(hexahydropyrrolo[3,4-c]pyrrol-2(1H)-yl)methanone]	0.051	0.0069	0.454
Cc1cc(-c2[nH]c3ccc(-c4nnc(C5CCN(C(=O)CN(C)C)CC5)o4)cc3c2C(C)C)ccn1 [Example 62, 2-(dimethylamino)-1-(4-(5-(3-isopropyl-2-(2-methylpyridin-4-yl)-1H-indol-5-yl)-1,3,4-oxadiazol-2-yl)piperidin-1-yl)ethan-1-one]	0.031	0.0022	0.743
COc1ccc(-c2[nH]c3ccc(-c4nnc(C)o4)cc3c2C(C)C)cc1OC [Example 63, 2-(2-(3,4-dimethoxyphenyl)-3-isopropyl-1H-indol-5-yl)-5-methyl-1,3,4-oxadiazole]	0.483	0.235	> 50
COc1ccc(-c2[nH]c3ccc(-c4nnc(CC(F)(F)F)o4)cc3c2C(C)C)cc1OC [Example 64, 2-(2-(3,4-dimethoxyphenyl)-3-isopropyl-1H-indol-5-yl)-5-(2,2,2-trifluoroethyl)-1,3,4-oxadiazole]	1.03	0.34	> 50
Cc1cc(-c2[nH]c3ccc(-c4nnc(C5CCN(CC(=O)N(C)C)CC5)o4)cc3c2C(C)C)ccn1 [Example 65, 2-(4-(5-(3-isopropyl-2-(2-methylpyridin-4-yl)-1H-indol-5-yl)-1,3,4-oxadiazol-2-yl)piperidin-1-yl)-N,N-dimethylacetamide]	0.097	0.0029	2
Cc1cc(-c2[nH]c3ccc(-c4nnc(C5CCNCC5)o4)cc3c2C(C)C)ccn1 [Example 66, 2-(3-isopropyl-2-(2-methylpyridin-4-yl)-1H-indol-5-yl)-5-(piperidin-4-yl)-1,3,4-oxadiazole]	0.053	0.038	2.31
CNCCN1CCC(c2nnc(-c3ccc4[nH]c(-c5ccc(OC)c(OC)c5)c(CC(F)(F)F)c4c3)o2)CC1 [Example 67, 2-(4-(5-(2-(3,4-dimethoxyphenyl)-3-(2,2,2-trifluoroethyl)-1H-indol-5-yl)-1,3,4-oxadiazol-2-yl)piperidin-1-yl)-N-methylethan-1-amine]	0.244	0.057	0.316
Cc1cc(-c2[nH]c3ccc(-c4nnc([C@@H]5CSCN5)o4)cc3c2C(C)C)ccn1 [Example 68, (R)-2-(3-isopropyl-2-(2-methylpyridin-4-yl)-1H-indol-5-yl)-5-(thiazolidin-4-yl)-1,3,4-oxadiazole]	0.32	0.041	31.6
Cc1cc(-c2[nH]c3ccc(-c4nnc([C@H]5CCCNC5)o4)cc3c2C(C)C)ccn1 [Example 69, (S)-2-(3-isopropyl-2-(2-methylpyridin-4-yl)-1H-indol-5-yl)-5-(piperidin-3-yl)-1,3,4-oxadiazole]	0.016	0.0009	0.687
Cc1cc(-c2[nH]c3ccc(-c4nnc(C5CNCCO5)o4)cc3c2C(C)C)ccn1 (stereo not drawn) [Example 70, 2-(5-(3-isopropyl-2-(2-methylpyridin-4-yl)-1H-indol-5-yl)-1,3,4-oxadiazol-2-yl)morpholine]	0.038	0.0067	5.04
Cc1cc(-c2[nH]c3ccc(-c4nnc(C[C@@H]5CCCN5)o4)cc3c2C(C)C)ccn1 [Example 71, (S)-2-(3-isopropyl-2-(2-methylpyridin-4-yl)-1H-indol-5-yl)-5-(pyrrolidin-2-ylmethyl)-1,3,4-oxadiazole]	0.039	0.0014	6.91
Cc1cc(-c2[nH]c3ccc(-c4nnc([C@H]5Cc6ccccc6CN5)o4)cc3c2C(C)C)ccn1 [Example 72, (R)-2-(3-isopropyl-2-(2-methylpyridin-4-yl)-1H-indol-5-yl)-5-(1,2,3,4-tetrahydroisoquinolin-3-yl)-1,3,4-oxadiazole]	0.799	0.045	1.87
Cc1cc(-c2[nH]c3ccc(-c4nnc(Cc5c[nH]c6ccccc56)o4)cc3c2C(C)C)ccn1 [Example 73, 2-((1H-indol-3-yl)methyl)-5-(3-isopropyl-2-(2-methylpyridin-4-yl)-1H-indol-5-yl)-1,3,4-oxadiazole]	2.29	1.29	> 50
Cc1cc(-c2[nH]c3ccc(-c4nnc(Cc5cccnc5)o4)cc3c2C(C)C)ccn1 [Example 74, 2-(3-isopropyl-2-(2-methylpyridin-4-yl)-1H-indol-5-yl)-5-(pyridin-3-ylmethyl)-1,3,4-oxadiazole]	0.132	0.021	15.8
Cc1cc(-c2[nH]c3ccc(-c4nnc(CC(F)(F)F)o4)cc3c2C(C)C)ccn1 [Example 75, 2-(3-isopropyl-2-(2-methylpyridin-4-yl)-1H-indol-5-yl)-5-(2,2,2-trifluoroethyl)-1,3,4-oxadiazole]	0.576	0.072	> 50
Cc1cc(-c2[nH]c3ccc(-c4nnc(Cc5nnn[nH]5)o4)cc3c2C(C)C)ccn1 [Example 76, 2-((1H-tetrazol-5-yl)methyl)-5-(3-isopropyl-2-(2-methylpyridin-4-yl)-1H-indol-5-yl)-1,3,4-oxadiazole]	1.9	0.481	> 50
